In patent US20080242681A1, “N-4-(6-(Hetero)Aryl-Pyrimidin-4-Ylaminophenyl)-Benzenesulfonamides as Kinase Inhibitors” (Altana Pharma AG, priority 2004, published 2008) one finds IC50 data, which are given here for eight compounds.

By IC50 is commonly meant the concentration that gives 50% inhibition.

Where a name gives a salt, the structure may show the parent alone.

Holding throughout (format): biochemical
One test addresses T1, PKA (Homo sapiens, UniProt P17612).
T1 construct: purchased Panvera
In words: Protein Kinase A assay (SPA). To be noted: human recombinant PKA, read-out: IC50, inhibition of PKA. On the procedure:
(§1) The compounds of formula 1 are tested for their activity on different protein kinases and PKC isoforms using a scintillation proximity assay (SPA, Amersham International plc). ^33P-labeled peptides are captured onto streptavidin coated yttrium silicate SPA beads. β-particles, emitted from the captured ^33P-labeled substrate in close proximity to the bead are able to excite the scintillant, resulting in the generation of quantifiable light. The assay is performed in a 96-well polystyrene microtiterplate (1450-514, Isoplates, Wallac, Turku, Finland). The reaction mixture (50 μl) contains 10 μl of the test compound together with 10 μl of the relevant kinase, diluted in the relevant dilution buffer, 5 μl of 10 μM phorbol myristate acetate (PMA) in H2O, 5 μl of 1.6 mM phosphatidylserine (Sigma-Aldrich Chemie GmbH, Stein-heim, Germany) in 20 mM Tris/HCL buffer pH 7.4, 5 μl of 0.3% BSA in H2O, 5 μl of 30 μM relevant substrate and 10 μl of 5 μM ATP and 0.1 μCi of ^33P-ATP (Amersham, Freiburg, Germany) in 200 mM Tris/HCL pH 7.5 and 200 mM MgCl2. Incubation is performed for 40 min at room temperature (RT) without shaking. Reaction is stopped by adding 150 μl of cold stop solution containing 10 mM ATP, 5 mM EGTA pH 7.5, 0.1% Triton X-100 and 0.2 mg streptavidin coated yttrium silicate SPA beads (Amersham, RPNQ 0012). The sealed plate is incubated for 60 min at RT. Thereafter the MTP is counted in a Microbeta Jet (Wallac). IC50 measurement is performed on a routine basis by incubation a serial dilution of inhibitor at concentrations ranging between 0.01 and 100 μM according to the method described above. Background values are the signals of the reaction mixture without addition of the relevant kinase and are subtracted from all values. 100% values are the signals of the reaction mixture without addition of inhibitors.
Human recombinant PKA was obtained from Panvera and is used in a scintillation proximity assay described in Section A.1. […] Thereafter the MTP is counted in a Microbeta Jet (Wallac). […] IC50 values are calculated from the graph by sigmoidal curve fitting.

For another test, the target named is T2, PKCε (Homo sapiens, UniProt Q02156).
T2 construct: purchased Panvera
T2 sequence (Q02156 1-737): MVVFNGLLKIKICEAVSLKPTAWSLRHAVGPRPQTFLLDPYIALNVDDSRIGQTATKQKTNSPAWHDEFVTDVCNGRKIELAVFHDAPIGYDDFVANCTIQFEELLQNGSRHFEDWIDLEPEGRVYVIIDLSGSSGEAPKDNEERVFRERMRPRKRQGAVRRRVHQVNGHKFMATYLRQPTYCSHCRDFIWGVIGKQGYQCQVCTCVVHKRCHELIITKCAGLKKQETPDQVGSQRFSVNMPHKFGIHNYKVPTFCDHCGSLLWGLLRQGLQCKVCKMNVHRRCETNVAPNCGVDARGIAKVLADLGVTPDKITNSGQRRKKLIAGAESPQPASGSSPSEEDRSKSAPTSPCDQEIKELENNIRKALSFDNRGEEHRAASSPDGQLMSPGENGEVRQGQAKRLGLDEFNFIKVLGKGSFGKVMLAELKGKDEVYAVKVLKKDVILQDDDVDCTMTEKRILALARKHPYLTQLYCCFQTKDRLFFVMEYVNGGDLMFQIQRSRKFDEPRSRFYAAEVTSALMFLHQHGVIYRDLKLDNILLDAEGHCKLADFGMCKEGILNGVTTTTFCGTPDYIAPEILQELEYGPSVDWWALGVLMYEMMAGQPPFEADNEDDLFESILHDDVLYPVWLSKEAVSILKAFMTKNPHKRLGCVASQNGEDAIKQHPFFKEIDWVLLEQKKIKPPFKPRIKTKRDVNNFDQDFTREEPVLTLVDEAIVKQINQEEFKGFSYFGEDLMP
In words: Protein Kinase C ε assay (SPA). The following applies: human recombinant PKCε, PKCη pseudosubstrate, read-out: IC50, inhibition of PKC ε. On the procedure: as §1
Dependent on the efficacy of the inhibitors In the various test systems, corresponding IC50 values are calculated from concentration-inhibition curves by nonlinear regression analysis using the program GraphPad Prism (GraphPad Software Inc., San Diego, Calif.).
Human recombinant PKCε was obtained from Panvera and is used under the assay conditions as described above (Section A.1). The enzyme is diluted in PKC dilution buffer containing 1 mM Hepes pH 7.4, 0.5 mM DTT and 0.001% Triton X-100. The kinase reaction is performed with the biotinylated PKCη pseudosubstrate solved in H2O.

The target in another test is T3, PKCζ (Homo sapiens, UniProt Q05513).
T3 construct: purchased Panvera
T3 sequence (Q05513 1-592): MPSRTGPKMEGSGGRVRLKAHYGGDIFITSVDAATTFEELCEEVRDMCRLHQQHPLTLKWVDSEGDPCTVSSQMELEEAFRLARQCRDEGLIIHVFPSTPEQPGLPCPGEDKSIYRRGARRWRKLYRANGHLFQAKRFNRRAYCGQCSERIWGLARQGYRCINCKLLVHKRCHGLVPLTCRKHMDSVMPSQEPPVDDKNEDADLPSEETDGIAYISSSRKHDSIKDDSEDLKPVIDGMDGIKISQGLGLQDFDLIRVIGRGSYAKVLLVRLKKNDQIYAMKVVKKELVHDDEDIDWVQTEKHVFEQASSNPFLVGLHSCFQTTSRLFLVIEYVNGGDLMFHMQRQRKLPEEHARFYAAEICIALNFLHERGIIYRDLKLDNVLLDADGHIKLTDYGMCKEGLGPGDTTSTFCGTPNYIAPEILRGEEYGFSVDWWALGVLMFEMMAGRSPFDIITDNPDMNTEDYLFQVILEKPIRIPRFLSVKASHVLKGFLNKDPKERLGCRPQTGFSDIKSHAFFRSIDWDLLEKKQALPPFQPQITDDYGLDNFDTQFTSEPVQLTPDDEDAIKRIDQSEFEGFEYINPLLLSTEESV
In words: Protein Kinase C ζ assay (SPA). The following applies: human recombinant PKCζ, absence of PMA and phosphatidylserine, read-out: IC50, inhibition of PKC ζ. On the procedure: The compounds of formula 1 are tested for their activity on different protein kinases and PKC isoforms using a scintillation proximity assay (SPA, Amersham International plc). ^33P-labeled peptides are captured onto streptavidin coated yttrium silicate SPA beads. β-particles, emitted from the captured ^33P-labeled substrate in close proximity to the bead are able to excite the scintillant, resulting in the generation of quantifiable light. The assay is performed in a 96-well polystyrene microtiterplate (1450-514, Isoplates, Wallac, Turku, Finland). The reaction mixture (50 μl) contains 10 μl of the test compound together with 10 μl of the relevant kinase, diluted in the relevant dilution buffer, 5 μl of 10 μM phorbol myristate acetate (PMA) in H2O, 5 μl of 1.6 mM phosphatidylserine (Sigma-Aldrich Chemie GmbH, Stein-heim, Germany) in 20 mM Tris/HCL buffer pH 7.4, 5 μl of 0.3% BSA in H2O, 5 μl of 30 μM relevant substrate and 10 μl of 5 μM ATP and 0.1 μCi of ^33P-ATP (Amersham, Freiburg, Germany) in 200 mM Tris/HCL pH 7.5 and 200 mM MgCl2. […] Thereafter the MTP is counted in a Microbeta Jet (Wallac). […]
(§2) Dependent on the efficacy of the inhibitors In the various test systems, corresponding IC50 values are calculated from concentration-inhibition curves by nonlinear regression analysis using the program GraphPad Prism (GraphPad Software Inc., San Diego, Calif.). […]

For the next test, the target named is T4, PKCι (Homo sapiens, UniProt P41743).
T4 construct: made in house; host or cells: Sf21 insect cells
T4 sequence (P41743 1-596): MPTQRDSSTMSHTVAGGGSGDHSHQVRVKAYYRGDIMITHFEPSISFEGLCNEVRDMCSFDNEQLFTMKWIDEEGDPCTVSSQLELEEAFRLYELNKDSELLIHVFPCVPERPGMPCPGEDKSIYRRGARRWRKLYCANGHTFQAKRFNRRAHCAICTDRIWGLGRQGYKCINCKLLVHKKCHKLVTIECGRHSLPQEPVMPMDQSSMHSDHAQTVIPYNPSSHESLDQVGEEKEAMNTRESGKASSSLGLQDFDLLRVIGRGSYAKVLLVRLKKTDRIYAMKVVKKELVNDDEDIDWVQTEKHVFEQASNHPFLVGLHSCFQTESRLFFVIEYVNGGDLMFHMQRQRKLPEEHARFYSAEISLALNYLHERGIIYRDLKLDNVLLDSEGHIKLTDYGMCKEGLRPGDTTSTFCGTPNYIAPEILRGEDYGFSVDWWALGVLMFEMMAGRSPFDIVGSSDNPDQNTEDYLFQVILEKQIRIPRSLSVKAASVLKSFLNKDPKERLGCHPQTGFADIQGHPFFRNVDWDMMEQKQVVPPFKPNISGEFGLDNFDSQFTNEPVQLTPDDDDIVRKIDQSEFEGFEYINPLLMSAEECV
In words: Protein Kinase C ι assay (SPA). The following applies: human recombinant PKCι from Sf21 insect cells, absence of PMA and phosphatidylserine, read-out: IC50, inhibition of PKC ι. On the procedure: as §1, §2

A further test addresses T5, PKCδ (Homo sapiens, UniProt Q05655).
T5 construct: purchased Panvera
In words: Protein Kinase C δ assay (SPA). The following applies: human recombinant PKCδ, PKCη pseudosubstrate, read-out: IC50, inhibition of PKC δ. On the procedure: as §1, §2

T5 sequence (Q05655 whole entry): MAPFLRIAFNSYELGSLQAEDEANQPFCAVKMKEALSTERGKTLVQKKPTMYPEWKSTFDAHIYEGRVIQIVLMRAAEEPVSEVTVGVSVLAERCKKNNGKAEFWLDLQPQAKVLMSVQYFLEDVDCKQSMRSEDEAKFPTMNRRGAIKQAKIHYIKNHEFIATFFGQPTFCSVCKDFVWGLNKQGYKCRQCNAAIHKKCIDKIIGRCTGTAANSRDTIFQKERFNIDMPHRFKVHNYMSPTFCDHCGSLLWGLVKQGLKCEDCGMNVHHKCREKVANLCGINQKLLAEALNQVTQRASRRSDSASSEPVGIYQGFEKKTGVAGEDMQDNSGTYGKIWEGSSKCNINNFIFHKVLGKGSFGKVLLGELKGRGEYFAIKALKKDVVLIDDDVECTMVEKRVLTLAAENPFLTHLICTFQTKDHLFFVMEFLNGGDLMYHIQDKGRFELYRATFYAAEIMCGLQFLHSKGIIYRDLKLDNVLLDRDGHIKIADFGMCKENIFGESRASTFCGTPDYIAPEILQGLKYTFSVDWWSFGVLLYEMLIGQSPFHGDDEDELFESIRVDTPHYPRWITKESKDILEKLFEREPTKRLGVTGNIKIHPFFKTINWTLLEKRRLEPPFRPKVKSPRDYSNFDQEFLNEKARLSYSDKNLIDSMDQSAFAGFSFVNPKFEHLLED

`O=S(=O)(Nc1ccc(Nc2cc(-c3cccc4ccccc34)ncn2)cc1)c1ccc(Cl)c(Cl)c1` [Example 10, 3,4-Dichloro-N-[4-(6-naphthalen-1-yl-pyrimidin-4-ylamino)-phenyl]-benzenesulfonamide]: the IC50 at PKA lay in the range of 3 to 16 µM.
Consider `Cc1csc(-c2cc(Nc3ccc(NS(=O)(=O)c4c(F)cccc4F)cc3)ncn2)c1` [Example 117, 2,6-Difluoro-N-{4-[6-(4-methyl-thiophen-2-yl)-pyrimidin-4-ylamino]-phenyl}-benzenesulfonamide], for which the IC50 at PKCε fell in the range of 4 to 21 µM; at PKA, 3 to 16 µM.
In the case of `O=S(=O)(Nc1ccc(Nc2cc(-c3ccc4[nH]ccc4c3)ncn2)cc1)c1cccc(F)c1` [Example 121, 3-Fluoro-N-{4-[6-(1H-indol-5-yl)-pyrimidin-4-ylamino]-phenyl}-benzenesulfonamide], on PKA, the IC50 lay in the range of 3 to 16 µM.
On to `O=S(=O)(Nc1ccc(Nc2cc(-c3ccc4c(ccn4CCCN4CCCC4)c3)ncn2)cc1)c1c(F)cccc1F` [Example 143, 2,6-Difluoro-N-(4-{6-[1-(3-pyrrolidin-1-yl-propyl)-1H-indol-5-yl]-pyrimidin-4-ylamino}-phenyl)-benzenesulfonamide formic acid salt], for which the IC50 at PKCζ was 15 to 25 µM.
For `COc1ccc(S(=O)(=O)Nc2ccc(Nc3cc(-c4ccc5c(ccn5CCCN5CCCC5)c4)ncn3)cc2)cc1` [Example 145, 4-Methoxy-N-(4-{6-[1-(3-pyrrolidin-1-yl-propyl)-1H-indol-5-yl]-pyrimidin-4-ylamino}-phenyl)-benzenesulfonamide formic acid salt], at PKCι, the IC50 fell in the range of 7 to 34 µM.
Still for that read-out and setting: for `CN1CCN(CCCn2ccc3cc(-c4cc(Nc5ccc(NS(=O)(=O)c6ccc(F)c(Cl)c6)cc5)ncn4)ccc32)CC1` [Example 162, 3-Chloro-4-fluoro-N-[4-(6-{1-[3-(4-methyl-piperazin-1-yl)-propyl]-1H-indol-5-yl}-pyrimidin-4-ylamino)-phenyl]-benzenesulfonamide formic acid salt] the value was 7 to 34 µM.
Consider `CCN(CC)CCCn1ccc2cc(-c3cc(Nc4ccc(NS(=O)(=O)c5ccc(F)cc5F)cc4)ncn3)ccc21` [Example 168, N-(4-{6-[1-(3-Diethylamino-propyl)-1H-indol-5-yl]-pyrimidin-4-ylamino}-phenyl)-2,4-difluoro-benzenesulfonamide formic acid salt], for which the IC50 on PKCδ lay in the range of 2 to 18 µM.
`CCN(CC)CCCn1cc(-c2cc(Nc3ccc(NS(=O)(=O)c4ccc(F)cc4F)cc3)ncn2)c2ccccc21` [Example 175, N-(4-{6-[1-(3-Diethylamino-propyl)-1H-indol-3-yl]-pyrimidin-4-ylamino}-phenyl)-2,4-difluoro-benzenesulfonamide formic acid salt]: on PKCζ, the concentration for half-maximal inhibition (IC50) was in the range of 15 to 25 µM.
